Where two headings read alike, the source gives them in different places.
Columns and labels:
[1] = molecular target: T1, CFTR (F508del/MF-HBE cells) (Homo sapiens, UniProt P13569, DEL508-508); assay: Ussing chamber assay of CFTR-mediated short-circuit currents, Assay A (0.1 μM to 25 μM, 6 concentrations); type: cell-based; conditions: with 33 nM potentiator and 18 μM Tezacaftor, 20% human serum; for Emax: 18-24 hours, read-out: A Max activity (%)
T1 construct: human bronchial epithelial (HBE) cells derived from CF subjects heterozygous for F508del and a minimal function CFTR mutation (F508del/MF-HBE); endogenous in cells; host or cells: Primary human bronchial epithelial cells from CF subjects (F508del/MF genotype), differentiated at an air-liquid interface
T1 sequence (P13569 with tags, fused parts or gaps DEL508-508): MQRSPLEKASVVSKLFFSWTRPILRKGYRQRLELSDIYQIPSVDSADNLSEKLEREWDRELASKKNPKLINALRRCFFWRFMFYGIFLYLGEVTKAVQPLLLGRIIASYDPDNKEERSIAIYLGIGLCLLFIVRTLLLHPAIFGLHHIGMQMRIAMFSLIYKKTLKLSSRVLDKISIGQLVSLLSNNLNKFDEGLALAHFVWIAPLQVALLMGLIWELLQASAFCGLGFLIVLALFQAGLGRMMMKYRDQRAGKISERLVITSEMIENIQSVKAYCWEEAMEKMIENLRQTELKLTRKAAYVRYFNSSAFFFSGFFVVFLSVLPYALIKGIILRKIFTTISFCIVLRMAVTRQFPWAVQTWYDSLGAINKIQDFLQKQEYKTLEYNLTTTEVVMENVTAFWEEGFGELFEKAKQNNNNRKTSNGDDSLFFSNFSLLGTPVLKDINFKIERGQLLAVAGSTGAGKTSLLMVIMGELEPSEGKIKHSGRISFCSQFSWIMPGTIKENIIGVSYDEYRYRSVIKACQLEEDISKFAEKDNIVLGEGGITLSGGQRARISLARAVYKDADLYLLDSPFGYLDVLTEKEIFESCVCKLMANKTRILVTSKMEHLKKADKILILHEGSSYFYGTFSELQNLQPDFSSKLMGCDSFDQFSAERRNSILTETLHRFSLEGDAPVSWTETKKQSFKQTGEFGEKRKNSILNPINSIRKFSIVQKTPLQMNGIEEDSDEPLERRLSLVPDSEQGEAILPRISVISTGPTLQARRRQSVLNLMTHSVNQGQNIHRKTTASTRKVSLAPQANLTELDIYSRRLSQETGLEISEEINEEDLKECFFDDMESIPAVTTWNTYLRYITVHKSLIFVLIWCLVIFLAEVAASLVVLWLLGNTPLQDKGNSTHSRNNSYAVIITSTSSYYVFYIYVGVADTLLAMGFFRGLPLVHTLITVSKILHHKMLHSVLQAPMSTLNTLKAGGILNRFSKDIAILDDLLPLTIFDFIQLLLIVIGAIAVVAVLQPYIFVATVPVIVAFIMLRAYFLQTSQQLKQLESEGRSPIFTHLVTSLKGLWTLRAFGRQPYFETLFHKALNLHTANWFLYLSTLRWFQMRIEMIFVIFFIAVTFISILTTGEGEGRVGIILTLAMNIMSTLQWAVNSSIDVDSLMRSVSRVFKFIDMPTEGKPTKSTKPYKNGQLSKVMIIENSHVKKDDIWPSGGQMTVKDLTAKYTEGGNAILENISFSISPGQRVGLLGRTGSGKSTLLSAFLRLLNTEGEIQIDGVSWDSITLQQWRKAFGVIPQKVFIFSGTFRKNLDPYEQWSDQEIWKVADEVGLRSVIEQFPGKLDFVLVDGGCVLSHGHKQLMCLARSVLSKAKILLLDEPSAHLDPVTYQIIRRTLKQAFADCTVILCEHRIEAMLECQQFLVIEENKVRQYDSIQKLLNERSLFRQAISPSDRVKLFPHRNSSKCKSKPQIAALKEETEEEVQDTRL
Procedure, shortened: (§1)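 Short-circuit current was recorded at 37 °C under voltage clamp (0 mV) with amiloride 30 μM apically, forskolin 20 μM activation, then BPO/GlyH-101/inh-172 (20 μM each) to isolate CFTR current. Before recording, corrector exposure lasted 18–24 h with 18 μM tezacaftor, 20% human serum, and 33 nM (dose–response) or 44 nM (1 μM fixed) potentiator, maintained throughout.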

[2] = amide bond, 13-membered ring, CDMT/NMM, DMF
[3] = molecular target: T1, CFTR (F508del/MF-HBE cells); assay: Ussing chamber assay of CFTR-mediated short-circuit currents, Assay B (0.00001 μM to 25 μM, 12 concentrations); type: cell-based; conditions: with 33 nM potentiator and 18 μM Tezacaftor, 20% human serum; for Emax: 18-24 hours, read-out: B Max activity (%)
Procedure, shortened: as §1

[4] = molecular target: T1, CFTR (F508del/MF-HBE cells); assay: Ussing chamber assay of CFTR-mediated short-circuit currents, Assay D (single concentration of 1 μM); type: cell-based; conditions: with 44 nM potentiator and 18 μM Tezacaftor, 18-24 hours, 20% human serum
Procedure, shortened: as §1

[5] = molecular target: T1, CFTR (F508del/MF-HBE cells); assay: Ussing chamber assay of CFTR-mediated short-circuit currents, Assay C (0.026 μM to 25 μM, 6 concentrations); type: cell-based; conditions: with 33 nM potentiator and 18 μM Tezacaftor, 20% human serum
Procedure, shortened: as §1

[6] = from Cc1cccc(C)c1-c1cc(OC[C@@H](CC(C)(C)C)NCc2cn3ccc(Br)cc3n2)nc(NS(=O)(=O)c2cccc(C(=O)O)c2)n1; amide bond; 13-membered ring; CDMT/NMM; DMF; 28.2 mM; 3.08 h

Work on `Cc1cccc(C)c1-c1cc2nc(n1)NS(=O)(=O)c1cccc(c1)C(=O)N(Cc1cnc3oc(C4CC4)cc3n1)C(CC1CC(C)(C)C1)CO2` (stereo not drawn) yielded a ring closure, isolated yield (from Cc1cccc(C)c1-c1cc(OCC(CC2CC(C)(C)C2)NCc2cnc3oc(C4CC4)cc3n2)nc(NS(=O)(=O)c2cccc(C(=O)O)c2)n1, amide bond, 13-membered ring, CDMT/NMM, DMF, 15.9 mM, 25.0 h) of 75%.
Work on `Cc1cccc(C)c1-c1cc2nc(n1)NS(=O)(=O)c1cccc(c1)C(=O)N(Cc1cnc3oc(C4CC4)cc3n1)[C@H](CC13CC(C1)C3)CO2` [Compound I-52, (11R)-11-(1-bicyclo[1.1.1]pentanylmethyl)-12-[(6-cyclopropylfuro[2,3-b]pyrazin-2-yl)methyl]-6-(2,6-dimethylphenyl)-2,2-dioxo-9-oxa-2λ^6-thia-3,5,12,19-tetrazatricyclo[12.3.1.14,8]nonadeca-1(18),4(19),5,7,14,16-hexaen-13-one] yielded an Emax [1] of over 60%, an EC50 [1] of under 1000 nM and a ring closure, yield after HPLC ([2]; from Cc1cccc(C)c1-c1cc(OC[C@@H](CC23CC(C2)C3)NCc2cnc3oc(C4CC4)cc3n2)nc(NS(=O)(=O)c2cccc(C(=O)O)c2)n1, 12.4 mM, 18.0 h) of 66%. The Emax [3] was over 60% and the EC50 [3] was 1000 to 3000 nM.
For `Cc1cccc(C)c1-c1cc2nc(n1)NS(=O)(=O)c1cccc(c1)C(=O)N(Cc1cnc3oc(C(C)(C)C)cc3n1)[C@H](CC13CC(C1)C3)CO2` [Compound I-99, (11R)-11-(1-bicyclo[1.1.1]pentanylmethyl)-12-[(6-tert-butylfuro[2,3-b]pyrazin-2-yl)methyl]-6-(2,6-dimethylphenyl)-2,2-dioxo-9-oxa-2λ^6-thia-3,5,12,19-tetrazatricyclo[12.3.1.14,8]nonadeca-1(18),4(19),5,7,14,16-hexaen-13-one], the Emax [1] was over 60%, the EC50 [1] was under 1000 nM and the ring closure, yield after HPLC ([2]; from Cc1cccc(C)c1-c1cc(OC[C@@H](CC23CC(C2)C3)NCc2cnc3oc(C(C)(C)C)cc3n2)nc(NS(=O)(=O)c2cccc(C(=O)O)c2)n1, 29.9 mM, 16.0 h) was 54%. The Emax [3] was over 60%, the EC50 [3] was under 1000 nM and the “D activity at 1 μM (%)” value [4] was “+++ (+++ is >60%)”.
Compound `Cc1cccc(C)c1-c1cc2nc(n1)NS(=O)(=O)c1cccc(c1)C(=O)N(Cc1cnc3oc(C(C)(C)C)cc3n1)[C@H](CC1(C)CC1)CO2` [Compound I-98, (11R)-12-[(6-tert-butylfuro[2,3-b]pyrazin-2-yl)methyl]-6-(2,6-dimethylphenyl)-11-[(1-methylcyclopropyl)methyl]-2,2-dioxo-9-oxa-2λ^6-thia-3,5,12,19-tetrazatricyclo[12.3.1.14,8]nonadeca-1(18),4(19),5,7,14,16-hexaen-13-one] has an Emax [1] of over 60%, an EC50 [1] of under 1000 nM and a ring closure, yield after HPLC ([2]; from Cc1cccc(C)c1-c1cc(OC[C@@H](CC2(C)CC2)NCc2cnc3oc(C(C)(C)C)cc3n2)nc(NS(=O)(=O)c2cccc(C(=O)O)c2)n1, 44.5 mM, 16.0 h) of 55%. For the same compound, the Emax [3] was over 60% and the EC50 [3] was 1000 to 3000 nM.
`Cc1cccc(C)c1-c1cc2nc(n1)NS(=O)(=O)c1cccc(c1)C(=O)N(Cc1cnc3oc(C4(C)CC4)cc3n1)[C@H](CC1(C)CC1)CO2` [Compound I-96, (11R)-6-(2,6-dimethylphenyl)-12-[[6-(1-methylcyclopropyl)furo[2,3-b]pyrazin-2-yl]methyl]-11-[(1-methylcyclopropyl)methyl]-2,2-dioxo-9-oxa-2λ^6-thia-3,5,12,19-tetrazatricyclo[12.3.1.14,8]nonadeca-1(18),4(19),5,7,14,16-hexaen-13-one] showed an Emax [1] of over 60%, an EC50 [1] of under 1000 nM and a ring closure, yield after HPLC ([2]; from Cc1cccc(C)c1-c1cc(OC[C@@H](CC2(C)CC2)NCc2cnc3oc(C4(C)CC4)cc3n2)nc(NS(=O)(=O)c2cccc(C(=O)O)c2)n1, 50.0 mM, 6.0 h) of 63%. The Emax [3] was over 60% and the EC50 [3] was 1000 to 3000 nM.
In the case of `Cc1cccc(C)c1-c1cc2nc(n1)NS(=N)(=O)c1cccc(c1)C(=O)N(Cc1cnc3oc(C4CC4)cc3n1)[C@H](CC(C)(C)C)CO2` (stereo partly drawn), the ring closure, isolated yield (from 3-[[[4-[(2R)-2-[(6-Cyclopropylfuro[2,3-b]pyrazin-2-yl)methylamino]-4,4-dimethyl-pentoxy]-6-(2,6-dimethylphenyl)pyrimidin-2-yl]amino]sulfonimidoyl]benzoic acid (hydrochloride salt) (isomer B), amide bond, 13-membered ring, CDMT/NMM, DMF, 10.4 mM) is reported as 8%.
For `Cc1cccc(C)c1-c1cc2nc(n1)NS(=O)(=O)c1cccc(c1)C(=O)N(Cc1cnc3oc(C4CC4)cc3n1)C(C(C(C)C)C(C)C)CO2` (single isomer, unassigned) [Compound I-177, 12-[(6-cyclopropylfuro[2,3-b]pyrazin-2-yl)methyl]-6-(2,6-dimethylphenyl)-11-(1-isopropyl-2-methyl-propyl)-2,2-dioxo-9-oxa-2λ^6-thia-3,5,12,19-tetrazatricyclo[12.3.1.14,8]nonadeca-1(18),4(19),5,7,14,16-hexaen-13-one], the Emax ([5]; 18-24 hours, read-out: C Max activity (%)) was over 60%, the EC50 [5] was under 1000 nM and the ring closure, isolated yield (from Cc1cccc(C)c1-c1cc(OCC(NCc2cnc3oc(C4CC4)cc3n2)C(C(C)C)C(C)C)nc(NS(=O)(=O)c2cccc(C(=O)O)c2)n1, amide bond, 13-membered ring, CDMT/NMM, DMF, 15.0 mM, 68.0 h) was 31%. For the same compound, the “D activity at 1 μM (%)” value [4] was “+++ (+++ is >60%)”.
`Cc1cccc(C)c1-c1cc2nc(n1)NS(=O)(=O)c1cccc(c1)C(=O)N(Cc1cn3ccc(Br)cc3n1)[C@H](CC(C)(C)C)CO2` showed a ring closure, crude yield [6] of 90%.
With `Cc1cccc(C)c1-c1cc2nc(n1)NS(=O)(=O)c1cccc(c1)C(=O)N(Cc1cnc3oc(Br)cc3n1)[C@H](CC1(C)CC1)CO2` [Compound I-254, (11R)-12-[(6-bromofuro[2,3-b]pyrazin-2-yl)methyl]-6-(2,6-dimethylphenyl)-11-[(1-methylcyclopropyl)methyl]-2,2-dioxo-9-oxa-2λ^6-thia-3,5,12,19-tetrazatricyclo[12.3.1.14,8]nonadeca-1(18),4(19),5,7,14,16-hexaen-13-one] the ring closure, isolated yield (from Cc1cccc(C)c1-c1cc(OC[C@@H](CC2(C)CC2)NCc2cnc3oc(Br)cc3n2)nc(NS(=O)(=O)c2cccc(C(=O)O)c2)n1, amide bond, 13-membered ring, CDMT?, 16.0 h) was 65% and the “D activity at 1 μM (%)” value [4] was “++ (++ is 30-60%)”.
`Cc1cccc(C)c1-c1cc2nc(n1)NS(=O)(=O)c1cccc(c1)C(=O)N(Cc1cnc3oc(C4CC4)cc3n1)C(C1(C(C)C)CC1)CO2` (stereo not drawn) gave a ring closure, isolated yield (from Cc1cccc(C)c1-c1cc(OCC(NCc2cnc3oc(C4CC4)cc3n2)C2(C(C)C)CC2)nc(NS(=O)(=O)c2cccc(C(=O)O)c2)n1, amide bond, 13-membered ring, CDMT/NMM, DMF, 25.0 °C) of 41%.
With `CC1(C)CCC=CC[C@](OCc2ccccc2)(C(F)(F)F)C2=NN=C(O2)c2nc(c(C(F)(F)F)cc2[N+](=O)[O-])N1` (mixture of isomers) the ring closure, isolated yield (from C=CCCC(C)(C)Nc1nc(-c2nnc([C@@](CC=C)(OCc3ccccc3)C(F)(F)F)o2)c([N+](=O)[O-])cc1C(F)(F)F, rcm bond, 14-membered ring, Zhan catalyst-1B (20 mol%), DCE, 9.26 mM, 72.0 °C, 2.47 h) was 40%.
With `Cc1cccc(C)c1-c1cc2nc(n1)NS(=O)(=O)c1cccc(c1)C(=O)N(Cc1cncc(Cl)n1)[C@H](CCC(C)(C)C)CO2` the ring closure, isolated yield (from Cc1cccc(C)c1-c1cc(OC[C@@H](CCC(C)(C)C)NCc2cncc(Cl)n2)nc(NS(=O)(=O)c2cccc(C(=O)O)c2)n1, amide bond, 13-membered ring, CDMT/NMM, DMF, 15.0 mM, 18.0 h) was 48%.
